In patent publication US11099176B2 (priority 2015, dated 2021):
Where two headings read alike, the source gives them in different places.

How the values were obtained:
[1] = target: T1, Polymorphum gilvum pgLacBP10, YP_004304976.1, SEQ ID NO: 10 (expressed form SEQ ID NO: 24) (Polymorphum gilvum, UniProt F2IY60); test: Lactate binding by thermal stability shift; set-up: key to appKd (lactate) / trueKd (lactate): nb: no binding
T1 sequence (F2IY60 with tags, fused parts or gaps): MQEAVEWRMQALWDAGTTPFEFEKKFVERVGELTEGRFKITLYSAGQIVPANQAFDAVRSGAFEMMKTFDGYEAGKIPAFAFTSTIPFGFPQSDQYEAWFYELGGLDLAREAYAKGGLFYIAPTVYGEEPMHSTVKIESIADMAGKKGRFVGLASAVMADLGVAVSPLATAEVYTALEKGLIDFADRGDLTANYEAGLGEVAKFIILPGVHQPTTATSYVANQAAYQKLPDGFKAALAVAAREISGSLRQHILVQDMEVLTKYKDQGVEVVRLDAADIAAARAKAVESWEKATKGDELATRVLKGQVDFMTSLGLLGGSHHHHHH
Source text: These experiments comprise four successive steps: • 1. Synthetic gene construction. The amino acid sequence of the homology leads are back translated into DNA sequences. These are optimized for directing heterologous cytoplasmic expression of the protein homologues in E. coli, using either the OrfOpt or OrfMorph programs. These programs predict mRNA sequences that direct high-level protein expression in E. coli. The predicted gene sequences are assembled de novo from synthetic oligonucleotides. • 2. Heterologous protein expression of the homologues in E. coli. Plasmids carrying the synthetic expression constructs (see above) were transformed into KRX competent cells (Promega). Protein production was induced in bacterial cultures of these cultures. • 3. Purification of successfully expressed protein using immobilized metal affinity chromatography. • 4.
The thermal stability of purified LacBP candidate proteins was determined by measuring the temperature-dependence of the fluorescence signal of an extrinsically added dye, SYPRO, using a Roche LightCycler (Layton and Hellinga, 2010, Biochemistry, 49, 10831-41). The total fluorescence intensity, S, is given by S=βFfF+βUfU 11 where fF and fU are the fractions of protein in the folded and unfolded states, respectively, and βF and βUthe fluorescence baselines of these two states. To get the fractions of the two states, we have
To obtain the temperature dependence of the binding reaction, the Kd values of all the individually determined isotherms were fit the Gibbs-Hemholtz equation (Layton and Hellinga, 2010, Biochemistry, 49, 10831-41): […]

[2] = target: Marinobacter sp. msLacBP6 variant W11C, Acrylodan conjugate; test: Fluorescence titration of conjugate; assay type: binding; conditions: λ1 473, λ2 520 nm
[3] = target: Marinobacter sp. msLacBP6 variant G170C, SEQ ID NO: 36, Badan conjugate; test: Fluorescence titration of conjugate; assay type: binding; conditions: read-out: trueKd (lactate); monochromatic, 520 nm
[4] = target: Marinobacter sp. msLacBP6 variant Y187C (187C), SEQ ID NO: 38, Badan conjugate; test: Fluorescence titration of conjugate; assay type: binding
[5] = target: T2, Marinobacter adhaerens maLacBP8 variant F189C, SEQ ID NO: 43, Acrylodan conjugate (Marinobacter adhaerens, UniProt E4PNW2, C105A/C90A/F252C); test: Fluorescence titration of conjugate; assay type: binding
T2 construct: Acrylodan on Cys189

[6] = target: T3, Marinobacter adhaerens maLacBP8 variant F189C, SEQ ID NO: 43, Badan conjugate (Marinobacter adhaerens, UniProt E4PNW2, C105A/C90A/F252C); test: Fluorescence titration of conjugate; assay type: binding
T3 construct: Badan on Cys189

[7] = target: T4, Pseudomonas stuztzeri psLacBP11 variant W195C, SEQ ID NO: 45, Acrylodan conjugate (Stutzerimonas nitrititolerans, UniProt A0ABX9V4I2, W224C); test: Fluorescence titration of conjugate; assay type: binding; conditions: λ1 487, λ2 466 nm
T4 construct: Acrylodan on Cys195

[8] = target: Marinobacter sp. msLacBP6 variant 187C, F68M, SEQ ID NO: 50, Badan conjugate; test: Fluorescence titration of conjugate (affinity tuning); assay type: binding; conditions: λ1 464, λ2 527 nm
[9] = target: Marinobacter sp. msLacBP6 variant 187C, F68L, SEQ ID NO: 49, Badan conjugate; test: as above; assay type: binding; conditions: λ1 463, λ2 535 nm
[10] = target: Marinobacter sp. msLacBP6 variant 187C, L70M, SEQ ID NO: 53, Acrylodan conjugate; test: as above; assay type: binding; conditions: λ1 455, λ2 479 nm
[11] = target: Marinobacter sp. msLacBP6 variant 187C, P150A, SEQ ID NO: 54, Acrylodan conjugate; test: as above; assay type: binding; conditions: read-out: trueKd (lactate); monochromatic, 463 nm
[12] = target: Marinobacter sp. msLacBP6 variant 187C, D220E, SEQ ID NO: 56, Badan conjugate; test: as above; assay type: binding; conditions: read-out: trueKd (lactate); monochromatic, 532 nm
[13] = Roche LightCycler, SYPRO Orange

T4 sequence (A0ABX9V4I2 entry or part of it W224C): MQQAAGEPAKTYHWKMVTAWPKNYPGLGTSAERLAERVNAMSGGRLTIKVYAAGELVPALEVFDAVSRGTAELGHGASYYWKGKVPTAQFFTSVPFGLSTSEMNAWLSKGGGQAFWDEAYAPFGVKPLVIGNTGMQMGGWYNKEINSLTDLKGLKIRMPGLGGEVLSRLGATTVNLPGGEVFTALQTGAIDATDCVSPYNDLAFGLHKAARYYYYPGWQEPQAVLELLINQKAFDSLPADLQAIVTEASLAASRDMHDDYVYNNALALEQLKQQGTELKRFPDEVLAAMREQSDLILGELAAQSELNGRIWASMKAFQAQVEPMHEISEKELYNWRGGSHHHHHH
T3 sequence (E4PNW2 entry or part of it C90A/C105A/F252C): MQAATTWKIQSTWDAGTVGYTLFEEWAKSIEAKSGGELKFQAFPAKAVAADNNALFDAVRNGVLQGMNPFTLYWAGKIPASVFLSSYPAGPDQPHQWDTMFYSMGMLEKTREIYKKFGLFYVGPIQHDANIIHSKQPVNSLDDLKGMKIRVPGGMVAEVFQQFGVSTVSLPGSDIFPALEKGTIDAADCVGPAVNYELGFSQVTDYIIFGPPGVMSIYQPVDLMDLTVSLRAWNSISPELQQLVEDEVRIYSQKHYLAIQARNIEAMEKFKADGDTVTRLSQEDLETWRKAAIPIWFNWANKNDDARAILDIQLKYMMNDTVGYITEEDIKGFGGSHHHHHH
T2 sequence (E4PNW2 entry or part of it C90A/C105A/F252C): as above

Compound: C[C@H](O)C(=O)O [lactate]
- appKd (lactate) [1, 13]: nb^f
- trueKd (lactate) [1, 13]: nb^f
- Lactate Binding ([1]; thermostability vs ligand concentration, fluorescence response of labeled conjugate): weak^f,g
- Kd ([2]; read-out: appKd (lactate)): 400 µM
- Kd ([2]; read-out: trueKd (lactate)): 400 µM
- Kd [3]: 20 µM
- Kd ([4]; read-out: appKd (lactate), approximate, text statement for Acrylodan and Badan conjugates): ~400 µM
- Kd ([4]; read-out: appKd (lactate), λ1 460, λ2 537 nm): 300 µM
- Kd ([4]; read-out: appKd (lactate), λ1 539, λ2 459 nm (Table 6)): 110 µM
- Kd ([4]; read-out: trueKd (lactate), λ1 460, λ2 537 nm): 200 µM
- Kd ([4]; read-out: trueKd (lactate), λ1 539, λ2 459 nm (Table 6)): 250 µM
- Kd [5]: 1500 µM
- Kd [6]: 600 µM
- Kd ([7]; read-out: appKd (lactate)): > 100000 µM
- Kd ([7]; read-out: trueKd (lactate)): > 100000 µM
- Kd ([8]; read-out: appKd (lactate)): 500 µM
- Kd ([8]; read-out: trueKd (lactate)): 600 µM
- Kd ([9]; read-out: appKd (lactate)): 400 µM
- Kd ([9]; read-out: trueKd (lactate)): 400 µM
- Kd ([10]; read-out: appKd (lactate)): 1600 µM
- Kd ([10]; read-out: trueKd (lactate)): 1200 µM
- Kd [11]: 6800 µM
- Kd [12]: 3100 µM
